# Data published in patent US20070060636A1, “High enantiomeric purity dexanabinol for pharmaceutical compositions” (priority 2002, published 2007).
# Like-named read-outs stand apart in the source and are kept apart here.
# How the values were obtained:
# [1] = 1st Phase I study, rising single i.v. dose, healthy male volunteers; assay type: in vivo, human; conditions: for AUC∞/Dose: normalized for dose (mg/kg); for half-life / MRT / clearance / AUC / AUC(0-inf) / Cmax / Vd: male, human, plasma, iv; for AUC / AUC(0-inf) / Cmax: up to 24 hr; for Vd: read-out: Vss
# Description: Pharmacokinetic parameters were estimated by a non-compartmental method using WinNonlin Professional version 3.2 (Pharsight Corp., Mountain View, Calif.). The maximum plasma concentration (Cmax), when the drug is administered by infusion, is the concentration at the end of infusion. The Cmax following intravenous bolus administration is the value estimated by the software to be the concentration at t=0. The terminal slope (X) was estimated by linear regression through the last time points and used to calculate the terminal half-life (t1/2) from the following equation: t1/2=0.693/λ The area under the curve from time of dosing through the last time point (AUCz) was calculated by the linear trapezoid method. The AUC extrapolated to infinity (AUC∞) was calculated from the following equation: AUC∞=AUCz+Cz/λ where Cz is the concentration at the last time point predicted by the linear regression. AUC∞ was normalized for dose (mg/kg) and presented as AUC∞/Dose. Mean residence time (MRT), when the drug is administered by infusion is described by the following equation: MRT=(AUMC/AUC)−(TI)/2 Mean residence time after i.v. bolus administration is described by the following equation: MRT=(AUMC/AUC) where AUMC is the area under the first moment curve and TI is the length of infusion. Plasma clearance (CL), and the apparent volume of distribution at steady state (Vss) were calculated from the following equations: CL=Dose/AUC∞ Vss=MRT×CL
# A Phase I, open label, single center study was conducted to evaluate the safety and tolerance of dexanabinol of high enantiomeric purity following a single intravenous administration to normal, healthy male volunteers (Brewster M. E. et al., International Journal Of Clinical Pharmacology and Therapeutics 35: 361-5, 1997). The trial was designed as a rising-dose tolerance study in healthy young male volunteers. In the study, seven groups of at least six subjects each (in the 100 mg dose n=9) received increasing doses (4, 8, 16, 32, 48, 100, 200 mg/volunteer) of dexanabinol. An additional group of 6 subjects received the vehicle alone. The lower doses, from 4 to 32 mg/volunteer, were included only in the safety segment of the study. Volunteers were followed-up up to 6 days after drug dosing for safety evaluation.
# The pharmacokinetic segment of this study involved 27 healthy male subjects to assess the pharmacokinetic profile of 48, 100 and 200 mg i.v. doses of dexanabinol. Each dosing group, including vehicle control, consisted of 6 healthy male subjects, except for the 100 mg dosing group which contained nine subjects. On the pre-study day, volunteers were treated with 20 mg dexamethasone orally. On the study day, each group was premedicated with Chlorpheniramine maleate 10 mg (H1 blocker) and Cimetidine 300 mg (H2 blocker) intravenously, followed 30 minutes later by a single intravenous infusion of dexanabinol, administered using an Ivac peristaltic pump at a rate of 6 ml/min (approximately 15 min infusion/dose). Ten milliliters of blood were then removed (from the contralateral arm) at the end of the infusion, at 5, 10, 20, 30, 45 min, and at 1, 2, 3, 6, 12 and 24 hr post infusion. In some cases blood was also drawn 48 hr post end of infusion.
# Mean pharmacokinetic parameters were estimated by non-compartmental methods up to 24 hr post-infusion for each dose group (mean±SE; n=6 or 9) using WinNonlin Professional version 3.2, (Pharsight Corp., Mountain view Calif.) and are presented in Table 8.
# [2] = system: inflammatory bowel disease (IBD) model; experiment: IBD induced by rectal 5% acetic acid solution; assay type: in vivo, Sprague Dawley male rats
# Description: The pharmacological activity of dexanabinol of high enantiomeric purity in enema formulation was also tested and compared to oral and i.p. formulations, wherein oral delivery was performed using a hard gelatin capsule and i.p. delivery was performed using the CREMOPHOR EL®:ethanol formulation. IBD was induced in Sprague Dawley male rats, by rectal administration of a 5% acetic acid solution. The rectum was then washed with saline and animals were clinically observed (body weight, stool consistency and blood in stool) daily for 7 days. On the eighth day, the animals were sacrificed, their colon opened and gross pathology lesions were recorded (hyperemia, edema, number of erosions, ulcers, perforations and adhesions). Animals, at least six per group, were treated rectally (by enema) with either dexanabinol (5, 10, 20 or 40 mg/kg/day) or its vehicle or by oral gavage (20, 40, or 80 mg/kg/day or vehicle). Administration of acetic acid caused a decrease in body weight (up to 20%), changes in stool consistency (diarrhea) and appearance of blood in the stool 24 hours later. Spontaneous clinical healing was detected as animals regained weight and blood was no more evident in the stool. In the gross pathology scale, rectal dexanabinol 10 mg/kg had the best effect (more than 50% reduction of score) compared to its vehicle (p<0.05). […] The rectal dexanabinol dose of 10 mg/kg was pharmacologically equivalent to 20 mg/kg i.p. dose and 80 mg/kg oral dose.
# [3] = 48 mg single i.v. infusion, healthy volunteers, mean ± SE
# [4] = 100 mg single i.v. infusion, healthy volunteers, mean ± SE
# [5] = 200 mg single i.v. infusion, healthy volunteers, mean ± SE
smiles,measurement,setting,value
"CCCCCCC(C)(C)c1cc(O)c2c(c1)OC(C)(C)[C@H]1CC=C(CO)C[C@H]21 [dexanabinol, 1,1-dimethylheptyl-(3S,4S)-7-hydroxy-Δ^6-tetrahydrocannabinol]",AUC∞/Dose,[1]; [3],"72,469 ± 8,774 ng × min/ml"
same,AUC∞/Dose,[1]; [4],"59,374 ± 4,742 ng × min/ml"
same,AUC∞/Dose,[1]; [5],"48,162 ± 3,355 ng × min/ml"
same,Plasma concentrations,[1]; after a 48 mg dose (0.62 mg/kg),approximately 1.8 μg/ml
same,Plasma concentrations,[1]; at 100 mg (1.29 mg/kg),~2900 ng/mL
same,Plasma concentrations,[1]; at 200 mg (2.59 mg/kg),~4600 ng/mL
same,half-life,"[1]; 48 mg, 48 mg single i.v. infusion, healthy volunteers, mean ± SE, read-out: t1/2 (converted)",6.3 ± 0.7 h
same,half-life,"[1]; 100 mg, 100 mg single i.v. infusion, healthy volunteers, mean ± SE, read-out: t1/2 (converted)",6.1 ± 0.7 h
same,half-life,"[1]; 200 mg, 200 mg single i.v. infusion, healthy volunteers, mean ± SE, read-out: t1/2 (converted)",8.2 ± 0.7 h
same,half-life,"[1]; single i.v. infusion 48, 100, 200 mg, read-out: distributional phase half-life",0.0333 to 0.05 h
same,half-life,"[1]; single i.v. infusion 48, 100, 200 mg, read-out: intermediate phase elimination half-life",1 to 2 h
same,half-life,"[1]; single i.v. infusion 48, 100, 200 mg, read-out: terminal elimination phase half-life",8.5 to 9.5 h
same,MRT,[1]; [3],3.1 ± 0.2 h
same,clearance,[1]; [3],14.9 ± 1.9 mL/min/kg
same,AUC,[1]; [3],710 ng·h/mL
same,AUC(0-inf),[1]; [3],725 ng·h/mL
same,Cmax,[1]; [3],1860 ng/mL
same,Vd,[1]; [3],2.8 ± 0.4 L/kg
same,MRT,[1]; [4],3.1 ± 0.3 h
same,clearance,[1]; [4],17.8 ± 1.5 mL/min/kg
same,AUC,[1]; [4],1200 ng·h/mL
same,AUC(0-inf),[1]; [4],1220 ng·h/mL
same,Cmax,[1]; [4],2890 ng/mL
same,Vd,[1]; [4],3.4 ± 0.4 L/kg
same,MRT,[1]; [5],4 ± 0.6 h
same,clearance,[1]; [5],21.3 ± 1.6 mL/min/kg
same,AUC,[1]; [5],2240 ng·h/mL
same,AUC(0-inf),[1]; [5],2320 ng·h/mL
same,Cmax,[1]; [5],4570 ng/mL
same,Vd,[1]; [5],5 ± 0.7 L/kg
same,acute doses found safe,[1]; single i.v.,≤ 200 mg per subject
same,tolerability of drug administration,[1]; single i.v. 4 to 200 mg/volunteer,well tolerated
same,i.p. dose pharmacologically equivalent to rectal dose of 10 mg/kg,"[2]; i.p., CREMOPHOR EL:ethanol formulation",20 mg/kg
same,oral dose pharmacologically equivalent to rectal dose of 10 mg/kg,[2]; oral,80 mg/kg
same,clinical disease severity compared to the vehicle,[2]; rectal 10 mg/kg,reduced also the clinical disease severity
same,reduction of gross pathology score compared to vehicle,"[2]; rectal (enema) 10 mg/kg, p<0.05",more than 50%
